# System: MV-4-11 cells
# Assay: Gene expression microarray analysis (Affymetrix PrimeView) and GSEA
# Type: cell-based, human
# Parameters: RFU PODN (11730768_x_at) / Fold change /veh PODN (11730768_x_at) / RFU LINC00158 (11744669_a_at) / Fold change /veh LINC00158 (11744669_a_at) / RFU DUSP10 (11751237_a_at) / Fold change /veh DUSP10 (11751237_a_at) / RFU ID3 (11757404_x_at) / Fold change /veh ID3 (11757404_x_at) / RFU PLEKHG5 (11737974_s_at) / Fold change /veh PLEKHG5 (11737974_s_at) / RFU LRRC4B (11730491_at) / Fold change /veh LRRC4B (11730491_at) / RFU GIMAP4 (11747438_a_at) / Fold change /veh GIMAP4 (11747438_a_at) / RFU KRT8 (11758183_x_at) / Fold change /veh KRT8 (11758183_x_at) / RFU CNN1 (11734310_a_at) / Fold change /veh CNN1 (11734310_a_at) / RFU VPS37D (11726825_at) / Fold change /veh VPS37D (11726825_at) / RFU C10orf10 (11716522_x_at) / Fold change /veh C10orf10 (11716522_x_at) / RFU KIR2DL2 /// KIR2DL4 /// KIR2DL5A /// KIR2DL5B /// KIR2DS1 /// KIR2DS2 /// KIR2DS3 /// KIR2DS4 /// KIR3DL3 /// KIR3DL3 /// KIR3DS1 (11738374_at) / Fold change /veh KIR2DL2 /// KIR2DL4 /// KIR2DL5A /// KIR2DL5B /// KIR2DS1 /// KIR2DS2 /// KIR2DS3 /// KIR2DS4 /// KIR3DL3 /// KIR3DL3 /// KIR3DS1 (11738374_at) / RFU C1QL1 (11718748_at) / Fold change /veh C1QL1 (11718748_at) / RFU TMPRSS4 (11747572_a_at) / Fold change /veh TMPRSS4 (11747572_a_at) / RFU HAMP (11756126_x_at) / Fold change /veh HAMP (11756126_x_at) / RFU RNFT2 (11725882_a_at) / Fold change /veh RNFT2 (11725882_a_at) / RFU NR4A2 (11747474_a_at) / Fold change /veh NR4A2 (11747474_a_at) / RFU ABCC12 (11746883_a_at) / Fold change /veh ABCC12 (11746883_a_at) / RFU TMEM136 (11760407_x_at) / Fold change /veh TMEM136 (11760407_x_at) / RFU CLDN22 /// WWC2 (11732394_at) / Fold change /veh CLDN22 /// WWC2 (11732394_at) / RFU HLA-DPB1 (11760878_x_at) / Fold change /veh HLA-DPB1 (11760878_x_at) / RFU SPINT1 (11716480_a_at) / Fold change /veh SPINT1 (11716480_a_at) / RFU GAP43 (11754022_s_at) / Fold change /veh GAP43 (11754022_s_at) / RFU A4GNT (11735810_at) / Fold change /veh A4GNT (11735810_at) / RFU PRB3 (11715151_x_at) / Fold change /veh PRB3 (11715151_x_at) / RFU TUBB4B (11761932_at) / Fold change /veh TUBB4B (11761932_at) / RFU CAPN14 (11732068_a_at) / Fold change /veh CAPN14 (11732068_a_at) / RFU TMCC2 (11721928_a_at) / Fold change /veh TMCC2 (11721928_a_at) / RFU IRGQ (11745062_a_at) / Fold change /veh IRGQ (11745062_a_at) / RFU FAM174B (11720279_a_at) / Fold change /veh FAM174B (11720279_a_at) / RFU TMPRSS4 (11748680_a_at) / Fold change /veh TMPRSS4 (11748680_a_at) / RFU FAM212B (11763350_a_at) / Fold change /veh FAM212B (11763350_a_at) / RFU PLEKHG5 (11743358_a_at) / Fold change /veh PLEKHG5 (11743358_a_at) / RFU ZSCAN30 (11745921_a_at) / Fold change /veh ZSCAN30 (11745921_a_at) / RFU CMKLR1 (11741424_a_at) / Fold change /veh CMKLR1 (11741424_a_at) / RFU LOC101060620 /// MAPK8IP1 (11723275_at) / Fold change /veh LOC101060620 /// MAPK8IP1 (11723275_at) / RFU SPTSSB (11747773_x_at) / Fold change /veh SPTSSB (11747773_x_at) / RFU PRSS12 (11739890_at) / Fold change /veh PRSS12 (11739890_at) / RFU BIN1 (11741810_x_at) / Fold change /veh BIN1 (11741810_x_at) / RFU WNT11 (11732464_a_at) / Fold change /veh WNT11 (11732464_a_at) / RFU C10orf10 (11716521_a_at) / Fold change /veh C10orf10 (11716521_a_at) / RFU C5orf56 (11738089_at) / Fold change /veh C5orf56 (11738089_at) / RFU CYB561 (11721691_x_at) / Fold change /veh CYB561 (11721691_x_at) / RFU ANKRD19P (11752326_a_at) / Fold change /veh ANKRD19P (11752326_a_at) / RFU OR2T12 /// OR2T33 /// OR2T8 (11738714_s_at) / Fold change /veh OR2T12 /// OR2T33 /// OR2T8 (11738714_s_at) / RFU VCAN (11748164_a_at) / Fold change /veh VCAN (11748164_a_at) / RFU JSRP1 (11732532_at) / Fold change /veh JSRP1 (11732532_at) / RFU KRTAP10-11 (11738290_x_at) / Fold change /veh KRTAP10-11 (11738290_x_at) / RFU MYO3A (11730013_a_at) / Fold change /veh MYO3A (11730013_a_at) / RFU EBF3 (11725865_a_at) / Fold change /veh EBF3 (11725865_a_at) / RFU CAMK2N1 (11719241_x_at) / Fold change /veh CAMK2N1 (11719241_x_at) / RFU C5orf56 (11738088_a_at) / Fold change /veh C5orf56 (11738088_a_at) / RFU OLFML3 (11715873_a_at) / Fold change /veh OLFML3 (11715873_a_at) / RFU LOC100653217 /// NTM (11731650_a_at) / Fold change /veh LOC100653217 /// NTM (11731650_a_at) / RFU MAPK11 (11762145_a_at) / Fold change /veh MAPK11 (11762145_a_at) / RFU FIZ1 (11724087_x_at) / Fold change /veh FIZ1 (11724087_x_at) / RFU OASL (11726364_x_at) / Fold change /veh OASL (11726364_x_at) / RFU SOX15 (11748057_x_at) / Fold change /veh SOX15 (11748057_x_at) / RFU CD79A (11719716_a_at) / Fold change /veh CD79A (11719716_a_at) / RFU HIST1H1D (11736915_at) / Fold change /veh HIST1H1D (11736915_at) / RFU CASKIN2 (11723855_a_at) / Fold change /veh CASKIN2 (11723855_a_at) / RFU LOC730098 (11760151_x_at) / Fold change /veh LOC730098 (11760151_x_at) / RFU OR4N2 (11742367_at) / Fold change /veh OR4N2 (11742367_at) / RFU PRRT2 (11749266_a_at) / Fold change /veh PRRT2 (11749266_a_at) / RFU SNX32 (11753110_a_at) / Fold change /veh SNX32 (11753110_a_at) / RFU CDHR5 (11726645_a_at) / Fold change /veh CDHR5 (11726645_a_at) / RFU RCAN1 (11760418_a_at) / Fold change /veh RCAN1 (11760418_a_at) / RFU FAM167A (11723789_a_at) / Fold change /veh FAM167A (11723789_a_at) / RFU FAM26E (11764081_at) / Fold change /veh FAM26E (11764081_at) / RFU ISYNA1 (11749810_s_at) / Fold change /veh ISYNA1 (11749810_s_at) / RFU ACY1 (11761880_at) / Fold change /veh ACY1 (11761880_at) / RFU 11764098_at / Fold change /veh 11764098_at / RFU SAMD14 (11745864_x_at) / Fold change /veh SAMD14 (11745864_x_at) / RFU NPB (11741838_a_at) / Fold change /veh NPB (11741838_a_at) / RFU TMPRSS6 (11731388_a_at) / Fold change /veh TMPRSS6 (11731388_a_at) / RFU KRTAP10-2 (11738614_at) / Fold change /veh KRTAP10-2 (11738614_at) / RFU ARHGAP8 /// PRR5-ARHGAP8 (11727945_x_at) / Fold change /veh ARHGAP8 /// PRR5-ARHGAP8 (11727945_x_at) / RFU KRTAP5-7 /// NADSYN1 (11734609_at) / Fold change /veh KRTAP5-7 /// NADSYN1 (11734609_at) / RFU RASL12 (11751679_a_at) / Fold change /veh RASL12 (11751679_a_at) / RFU CDKN2B (11736163_a_at) / Fold change /veh CDKN2B (11736163_a_at) / RFU PRF1 (11729649_at) / Fold change /veh PRF1 (11729649_at) / RFU, ZNF638 /// ZNF638-IT1 / Fold change vs veh, ZNF638 /// ZNF638-IT1 / RFU, PANK3 / Fold change vs veh, PANK3 / RFU, SH3YL1 / Fold change vs veh, SH3YL1 / RFU, ZEB2 / Fold change vs veh, ZEB2 / RFU, NRIP1 / Fold change vs veh, NRIP1 / RFU, PTTG1IP / Fold change vs veh, PTTG1IP / RFU, CAPN2 / Fold change vs veh, CAPN2 / RFU, MED14 / Fold change vs veh, MED14 / RFU, SNORA58 / Fold change vs veh, SNORA58 / RFU, C1orf63 / Fold change vs veh, C1orf63 / RFU, LRRFIP1 / Fold change vs veh, LRRFIP1 / RFU, NDUFAF7 / Fold change vs veh, NDUFAF7 / RFU, SLC12A2 / Fold change vs veh, SLC12A2 / RFU, IBTK / Fold change vs veh, IBTK / RFU, ESF1 / Fold change vs veh, ESF1 / Fold change vs veh, TMEM50B / RFU, TAOK1 / Fold change vs veh, TAOK1 / RFU, ACBD3 / Fold change vs veh, ACBD3 / RFU, TMA16 / Fold change vs veh, TMA16 / RFU, RWDD3 / Fold change vs veh, RWDD3 / RFU, BCAT1 / Fold change vs veh, BCAT1 / RFU, EDEM3 / Fold change vs veh, EDEM3 / RFU, TMEM33 / Fold change vs veh, TMEM33 / RFU, WDR75 / Fold change vs veh, WDR75 / RFU, AHCTF1 / Fold change vs veh, AHCTF1 / RFU, TFRC / Fold change vs veh, TFRC / RFU, ZDHHC17 / Fold change vs veh, ZDHHC17 / RFU, NOM1 / Fold change vs veh, NOM1 / RFU, ARL8B / Fold change vs veh, ARL8B / RFU, ZBTB11 / Fold change vs veh, ZBTB11 / RFU, TAMM41 / Fold change vs veh, TAMM41 / RFU, KIAA1704 /// LOC100996395 / Fold change vs veh, KIAA1704 /// LOC100996395 / RFU, ING1 / Fold change vs veh, ING1 / RFU, TRMT61B / Fold change vs veh, TRMT61B / RFU, FUBP3 / Fold change vs veh, FUBP3 / RFU, TP53 / Fold change vs veh, TP53 / RFU, TNKS2 / Fold change vs veh, TNKS2 / RFU, ZFP14 / Fold change vs veh, ZFP14 / RFU, ACTR2 / Fold change vs veh, ACTR2 / RFU, PPP3R1 / Fold change vs veh, PPP3R1 / RFU, PIK3R1 / Fold change vs veh, PIK3R1 / RFU, HNRNPA1 / Fold change vs veh, HNRNPA1 / RFU, RNF170 / Fold change vs veh, RNF170 / RFU, ZNF28 / Fold change vs veh, ZNF28 / RFU, RNGTT / Fold change vs veh, RNGTT / RFU, OGT / Fold change vs veh, OGT / RFU, BRD1 / Fold change vs veh, BRD1 / RFU, MARS / Fold change vs veh, MARS / RFU, ZNF655 / Fold change vs veh, ZNF655 / RFU, FAHD1 / Fold change vs veh, FAHD1 / RFU, BDP1 / Fold change vs veh, BDP1 / RFU, LRRCC1 / Fold change vs veh, LRRCC1 / RFU, ARID1A / Fold change vs veh, ARID1A / RFU, ZNF146 / Fold change vs veh, ZNF146 / RFU, ZNF330 / Fold change vs veh, ZNF330 / RFU, GPN3 / Fold change vs veh, GPN3 / RFU, C9orf123 / Fold change vs veh, C9orf123 / RFU, N4BP2L2 / Fold change vs veh, N4BP2L2 / RFU, ARFIP1 / Fold change vs veh, ARFIP1 / RFU, FAM179B / Fold change vs veh, FAM179B / RFU, BCL10 / Fold change vs veh, BCL10 / RFU, UHRF1BP1L / Fold change vs veh, UHRF1BP1L / RFU, BET1 / Fold change vs veh, BET1 / RFU, CNOT2 / Fold change vs veh, CNOT2 / RFU, ZNF268 / Fold change vs veh, ZNF268 / Fold change vs veh, ZNF507 / RFU, DGCR2 / Fold change vs veh, DGCR2 / RFU, WDSUB1 / Fold change vs veh, WDSUB1 / Fold change vs veh, HSP90B1 /// MIR3652 / RFU, ADSS / Fold change vs veh, ADSS / RFU, GK / Fold change vs veh, GK / RFU, ZNF148 / Fold change vs veh, ZNF148 / RFU, TAF9 / Fold change vs veh, TAF9 / RFU, SLC1A5 / Fold change vs veh, SLC1A5 / RFU, SLMO2 / Fold change vs veh, SLMO2 / RFU, ABCC4 / Fold change vs veh, ABCC4 / RFU, LOC101060439 /// RAP1B / Fold change vs veh, LOC101060439 /// RAP1B / RFU, RFX7 / Fold change vs veh, RFX7 / RFU, GTPBP10 / Fold change vs veh, GTPBP10 / RFU, CNEP1R1 / Fold change vs veh, CNEP1R1 / RFU, BIVM-ERCC5 /// ERCC5 / Fold change vs veh, BIVM-ERCC5 /// ERCC5 / RFU, ILF3 / Fold change vs veh, ILF3 / RFU 11762660_at / Fold change /veh 11762660_at / RFU VCAN (11757783_s_at) / Fold change /veh VCAN (11757783_s_at) / RFU DDX43 (11728927_at) / Fold change /veh DDX43 (11728927_at) / RFU KRT8 (11758188_x_at) / Fold change /veh KRT8 (11758188_x_at) / RFU NKD1 (11759106_at) / Fold change /veh NKD1 (11759106_at) / RFU SRD5A1 (11742802_a_at) / Fold change /veh SRD5A1 (11742802_a_at) / RFU TPSAB1 /// TPSB2 (11721975_s_at) / Fold change /veh TPSAB1 /// TPSB2 (11721975_s_at) / RFU GSTM3 (11746129_a_at) / Fold change /veh GSTM3 (11746129_a_at) / RFU IL23R (11737362_x_at) / Fold change /veh IL23R (11737362_x_at) / RFU TMEM51 (11727254_a_at) / Fold change /veh TMEM51 (11727254_a_at) / RFU PIWIL2 (11732686_x_at) / Fold change /veh PIWIL2 (11732686_x_at) / RFU ORM1 (11744905_x_at) / Fold change /veh ORM1 (11744905_x_at) / RFU CCDC152 (11743942_at) / Fold change /veh CCDC152 (11743942_at) / RFU ECM1 (11717891_a_at) / Fold change /veh ECM1 (11717891_a_at) / RFU IL23R (11748794_a_at) / Fold change /veh IL23R (11748794_a_at) / RFU TNFAIP8L3 (11732012_x_at) / Fold change /veh TNFAIP8L3 (11732012_x_at) / RFU MBOAT4 (11741988_at) / Fold change /veh MBOAT4 (11741988_at) / RFU 11764193_at / Fold change /veh 11764193_at / RFU TMEM53 (11763286_at) / Fold change /veh TMEM53 (11763286_at) / RFU MAGEB2 (11727129_at) / Fold change /veh MAGEB2 (11727129_at) / RFU TMEM200A (11744735_a_at) / Fold change /veh TMEM200A (11744735_a_at) / RFU CCDC152 (11751479_a_at) / Fold change /veh CCDC152 (11751479_a_at) / RFU FAM211A (11726209_a_at) / Fold change /veh FAM211A (11726209_a_at) / RFU RGS16 (11746705_a_at) / Fold change /veh RGS16 (11746705_a_at) / RFU VCAN (11755009_s_at) / Fold change /veh VCAN (11755009_s_at) / RFU RHOB (11743442_s_at) / Fold change /veh RHOB (11743442_s_at) / RFU RGS16 (11720943_a_at) / Fold change /veh RGS16 (11720943_a_at) / RFU RGS16 (11720944_at) / Fold change /veh RGS16 (11720944_at) / RFU, VPS4B / Fold change vs veh, VPS4B / RFU, CREB1 / Fold change vs veh, CREB1 / RFU, DNAJC13 / Fold change vs veh, DNAJC13 / RFU, GNAQ / Fold change vs veh, GNAQ / RFU, CDK5R1 / Fold change vs veh, CDK5R1 / RFU, ZRANB3 / Fold change vs veh, ZRANB3 / RFU, CUL4A / Fold change vs veh, CUL4A / RFU, CCNY / Fold change vs veh, CCNY / RFU, UFL1 / Fold change vs veh, UFL1 / RFU, COG3 / Fold change vs veh, COG3 / RFU, DIAPH2 / Fold change vs veh, DIAPH2 / RFU, SKA2 / Fold change vs veh, SKA2 / RFU, AFF3 / Fold change vs veh, AFF3 / RFU, LMF1 / Fold change vs veh, LMF1 / RFU, IPO11 / Fold change vs veh, IPO11 / RFU, DFFB / Fold change vs veh, DFFB / RFU, FOXP1 / Fold change vs veh, FOXP1 / RFU, CARD8 / Fold change vs veh, CARD8 / RFU, STRN3 / Fold change vs veh, STRN3 / RFU, ADK / Fold change vs veh, ADK / RFU, RASSF2 / Fold change vs veh, RASSF2 / RFU, WIPF1 / Fold change vs veh, WIPF1 / RFU, LARP1B / Fold change vs veh, LARP1B / RFU, RASA1 / Fold change vs veh, RASA1 / RFU, RB1 / Fold change vs veh, RB1 / RFU, PPFIA1 / Fold change vs veh, PPFIA1 / RFU, MAT2A / Fold change vs veh, MAT2A / RFU, CCT5 / Fold change vs veh, CCT5 / RFU, WDR92 / Fold change vs veh, WDR92 / RFU, CUX1 / Fold change vs veh, CUX1 / RFU, TTC7A / Fold change vs veh, TTC7A / RFU, TMEM135 / Fold change vs veh, TMEM135 / RFU, DEPTOR / Fold change vs veh, DEPTOR / RFU, CPM / Fold change vs veh, CPM / RFU, DNAJB6 / Fold change vs veh, DNAJB6 / RFU, CACNA2D3 / Fold change vs veh, CACNA2D3 / RFU, DTX4 / Fold change vs veh, DTX4 / RFU, TFCP2 / Fold change vs veh, TFCP2 / RFU, GMCL1 /// GMCL1P1 / Fold change vs veh, GMCL1 /// GMCL1P1 / RFU, AEBP2 / Fold change vs veh, AEBP2 / RFU, SNHG1 /// SNORD22 /// SNORD25 /// SNORD26 /// SNORD27 /// SNORD28 /// SNORD29 /// SNORD31 / Fold change vs veh, SNHG1 /// SNORD22 /// SNORD25 /// SNORD26 /// SNORD27 /// SNORD28 /// SNORD29 /// SNORD31 / Fold change (Aza/veh), C12orf56 (ProbeSet 11735607_a_at) / Fold change (ACY-1035/veh), C12orf56 (ProbeSet 11735607_a_at) / Fold change (Aza/veh), FGFR1OP (ProbeSet 11751329_s_at) / Fold change (ACY-1035/veh), FGFR1OP (ProbeSet 11751329_s_at) / Fold change (Aza/veh), VPS36 (ProbeSet 11739960_a_at) / Fold change (ACY-1035/veh), VPS36 (ProbeSet 11739960_a_at) / RFU SYPL1 (11715823_x_at) / Fold change /veh SYPL1 (11715823_x_at) / RFU IGFBP7 (11715501_s_at) / Fold change /veh IGFBP7 (11715501_s_at) / RFU REEP3 (11722064_at) / Fold change /veh REEP3 (11722064_at) / RFU IGLL1 (11728026_x_at) / Fold change /veh IGLL1 (11728026_x_at): dose or concentration left out as unconfirmed
# Conditions: MV-4-11 cells, 48 hours
smiles,measurement,value
Nc1ccc(-c2cccs2)cc1NC(=O)c1ccc2c(c1)cc(C1CC1)n2CCN1CCOCC1 [ACY-1035],Fold change /veh BIN1 (11741810_x_at),1.15

# Source: publication PMC5218480 (PLoS ONE, 2017)
